The conditions of series [1]: cited from earlier work.
Series [2] in a line: Dissolution of bilayer time release multi-B vitamin tablets, USP Apparatus 2 (paddle), HPLC. It is filed as physicochemical. The method, then: To investigate the effect of basic yeast on the dissolution profile of folic acid from vitamin B time release tablet, five formulas (Table 2) with different amounts of yeast were tested. The amount of yeast in the modified release layer was kept constant at 30 mg and included at least 15% hydroxypropyl methylcellulose (which acts as a controlled-release polymer).
Dissolution testing was performed using a qualified Sotax dissolution tester operated as USP Apparatus 2 (paddle) at 75 rpm and at 37±0.5° C. The media used for dissolution was different for different B vitamins and was selected to minimize degradation of these vitamins for the length of the study i.e. 8 hours. Each dissolution test was performed with 6 tablets. Sample aliquots were collected at 2, 4, 6, and 8 hour and filtered through 0.45-μm Millex-HV syringe filters, and analyzed by HPLC for dissolution samples.

The nature of series [3]: USP <711> in vitro dissolution of Nutrilite Vitamin B formulation NF6853. It is filed as physicochemical. An excerpt:
The USP requirement for instant release vitamins is for not less than 75% of label claim to be released within one hour.

Take `Cc1ncc(CO)c(CO)c1O` [Pyridoxine (B6), pyridoxine]: the “Solubility in Water (Per 100 ml water)” value in series [1] was 30.8 g per 100 ml water.
Turning to `Cc1cc2nc3c(=O)[nH]c(=O)nc-3n(C[C@H](O)[C@H](O)[C@H](O)CO)c2cc1C` [Riboflavin (B2), riboflavin], in series [2] (bi-layer tablet, immediate release layer), the “release from the immediate release layer, % of the label claim” value is “around 104%”. Further, in series [3] (in vitro dissolution, meets USP requirement of not less than 75% of label claim within one hour), the “release of riboflavin (B2) within an hour” value was “complete release”. In addition, in series [3] (instant release layer of NF6853, 1 hour, cumulative release based on input), the “% release (input)” value is listed as 77.12%. In series [3] (instant release layer of NF6853, 1 hour, cumulative release based on label claim), the “% release (LC)” value is 104%. Moreover, the “Solubility in Water (Per 100 ml water)” value in series [1] is listed as 0.010 g per 100 ml water.
For the compound `Nc1nc2ncc(CNc3ccc(C(=O)N[C@@H](CCC(=O)O)C(=O)O)cc3)nc2c(=O)[nH]1` [Folic Acid, folic acid], the “Solubility in Water (Per 100 ml water)” value in series [1] was 0.016 g per 100 ml water.
For `NC(=O)c1cccnc1` [Niacinamide (B3), niacinamide], the “Solubility in Water (Per 100 ml water)” value in series [1] is reported as 69.1 g per 100 ml water.
Turning to `O=C(O)CCCC[C@@H]1SC[C@@H]2NC(=O)N[C@@H]21` [Biotin, biotin], in series [2] (predicted from release of folic acid and thiamine and solubility order, biotin was not analyzed), the “predicted release profile from modified release matrix” value was “intermediate release profile”. Besides, the “Solubility in Water (Per 100 ml water)” value in series [1] is reported as 0.022 g per 100 ml water.

The record behind these values is patent US11291683B2, “Bilayer tablets of B vitamins and process for preparing the same” (Access Business Group International LLC, priority 2016, dated 2022).
